Source: BindingDB's records for doi:10.1021/jm060653b (Pfizer, 2007)

Target: T1, cAMP and cAMP-inhibited cGMP 3',5'-cyclic phosphodiesterase 10A (Rattus norvegicus, UniProt Q9QYJ6)
T1 sequence (Q9QYJ6 whole entry): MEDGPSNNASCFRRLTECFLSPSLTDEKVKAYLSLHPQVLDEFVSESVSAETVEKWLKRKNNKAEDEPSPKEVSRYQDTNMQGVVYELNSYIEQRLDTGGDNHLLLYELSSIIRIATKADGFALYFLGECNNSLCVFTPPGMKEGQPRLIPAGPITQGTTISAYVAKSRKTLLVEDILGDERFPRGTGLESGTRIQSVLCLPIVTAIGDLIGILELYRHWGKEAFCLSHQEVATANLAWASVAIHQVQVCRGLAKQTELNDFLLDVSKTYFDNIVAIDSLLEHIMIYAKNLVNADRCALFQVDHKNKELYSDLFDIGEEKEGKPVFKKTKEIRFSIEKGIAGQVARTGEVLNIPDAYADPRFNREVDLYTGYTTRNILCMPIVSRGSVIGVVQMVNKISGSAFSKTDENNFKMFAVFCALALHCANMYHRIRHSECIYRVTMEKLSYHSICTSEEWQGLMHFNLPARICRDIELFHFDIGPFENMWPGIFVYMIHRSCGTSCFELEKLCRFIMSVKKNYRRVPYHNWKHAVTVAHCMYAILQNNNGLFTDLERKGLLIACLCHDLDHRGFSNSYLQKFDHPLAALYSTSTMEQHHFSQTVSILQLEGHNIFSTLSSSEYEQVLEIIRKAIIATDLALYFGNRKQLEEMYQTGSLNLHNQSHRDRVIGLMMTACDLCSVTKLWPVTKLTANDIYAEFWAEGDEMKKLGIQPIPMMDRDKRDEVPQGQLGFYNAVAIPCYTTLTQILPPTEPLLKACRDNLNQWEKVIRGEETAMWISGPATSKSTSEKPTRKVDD
Assay: PDE Competitive Enzyme Inhibition Assay
Conditions: pH 7.5; 22 °C
From the text: PDE activity was monitored by measuring the hydrolysis of [3H]-cAMP to [3H]-AMP using a scintillation proximity assay (SPA). [3H]-AMP was captured by the SPA beads, and quantified on a TopCount plate reader.

Ki: 100 nM
SMILES: COc1cc2ncnc(N3CC[C@@H](Oc4ccc(C(C)(C)C)cc4)C3)c2cc1OC [(R)-4-[3-(4-tert-Butyl-phenoxy)-pyrrolidin-1-yl]-6,7-dimethoxy-quinazoline]
